Measurements as given in paper PMC6363759, “Decreased complexity of glucose dynamics in diabetes in rhesus monkeys” (Scientific Reports, 2019).

Tests used:
[1] = system: diabetic rhesus monkeys; assay: Multiscale entropy (MSE) analysis of glucose dynamics before and during liraglutide treatment; format: in vivo; conditions: 15 µg/kg sc daily
Procedure: Details about the definition and calculation of MSE are given in the Supplementary Materials and Methods. MSE-AUC10s-30m is the area under an MSE curve between scale factors of 10 seconds and 30 minutes, and was used as a single-number summary of the curve.
Five diabetic animals were treated with liraglutide for four weeks, beginning during the sixth week of monitoring. […] For each animal the period of the same length immediately preceding the start of liraglutide was used as the comparator (‘pre-liraglutide’) period.
Supplementary Materials and Methods
Multiscale entropy analysis, introduced by Costa et al1, is built upon a quantity called sample entropy2, which we describe first. The sample entropy of a regularly spaced time series of length N is defined using two parameters: a subsequence length, m, and a similarity threshold, r. Consider any two subsequences of length m of the time series. […]
start at the same position.) The subsequences are said to match if the i-th element of one subsequence differs from the i-th element of the other by no more than r, for all ݅=1,…,݉. Let B denote the number of matching pairs of subsequences when we consider all possible pairs of length- m subsequences from the first […] observations of the series. Next, repeat the process of counting matches, but use subsequences of length m+1instead of m, and consider all possible such subsequences taken from the full series of N observations. Let A denote the number of matching pairs among them.
Then the sample entropy is the negative natural logarithm of the ratio A/B. See Richman and Moorman 2 for details and explicit formulas. […]
Multiscale entropy calculates this sample entropy after applying various amounts of averaging to the original time series. […] The result is a new time series of averages, for which sample entropy is calculated. […]
Application of MSE analysis requires choosing values for the parameters m and r, and the set of scale factors to use. […] The smallest possible scale fact or is set by the time resolution of the series being analyzed, in our case 1 second. […]

[2] = in the clinic, cited from earlier work
Description: The sixth diabetic animal, 161281, was not treated because it was already receiving insulin.

[3] = system: diabetic rhesus monkeys; assay: Glucose lowering by liraglutide detected by continuous glucose monitoring (CGM); format: in vivo; conditions: for Mean glucose, With liraglutide: CGM over treatment period (16 to 28 days)
Procedure: Vehicle used was 1 mM Sodium Phosphate (pH = 8) and 5% Mannitol. […] Blood samples were obtained at 0.08, 0.25, 0.50, 1.00, 2.00, 4.00, 6.00, 7.00, and 24.00 hours post-dose. […] Compound was given daily subcutaneously at 15 µg/kg in the morning each day (~8–9 am). Lira dosing started on Day 39 of the CGM period and continued for 28 days.
Surgery procedure: Rhesus monkeys underwent surgery for placement of the DSI HD-XG glucose sensor into the right carotid artery. Animals were initially sedated with 10 mg/kg ketamine IM, intubated and anesthesia was maintained through isoflurane inhalation. All monkeys received 0.01 mg/kg Buprenorphine IM, 4.4 mg/kg carprofen SC and 20 mg/kg ceftiofur SC preoperatively. A 3–4 centimeter skin incision was made on the right, mid-lateral neck over the carotid artery where the pulse was palpated. A 1–2 centimeter segment of the right carotid artery was isolated and a tight ligature was placed distally towards the head around the exposed section of vessel. A second ligature was pre-placed, but not tightened, proximally towards the chest around the exposed section of vessel to prevent excessive bleeding when the vessel was cut. A small incision was made in the artery between these two ligatures. The sensor was inserted into the lumen of the vessel and advanced towards the heart approximately 8–9 centimeters. The pre-placed ligature was tightened to prevent bleeding around the sensor. A third ligature was secured around the sensor between the previously placed ligatures and further secured around the vessel to prevent the sensor from migrating. The telemetry body was secured to the underlying musculature in the right lateral neck near the sensor entry into the artery. Monkeys received 2 mg/kg bupivacaine locally at the skin incision. All incisions were then closed routinely. The animals were removed from the isoflurane anesthesia to allow for recovery and were monitored until they were sternal and stable. Animals received 4.4 mg/kg carprofen PO or IM once the day following surgery and were observed daily for the next 10 days to assure a normal recovery. A reference electrode and telemetry body was placed in the subcutaneous tissue near the catheter entry point as recommended by DSI.
The implanted sensor transmits its signal to a repeater located on the same animal on the collar. That repeater then immediately retransmits the HD-XG data on a different frequency to a repeater receiver up to 8 meters away. […] Glucose sensor values were reported once per second.

In the case of `CCCCCCCCCCCCCCCC(=O)N[C@@H](CCC(=O)NCCCC[C@H](NC(=O)[C@H](C)NC(=O)[C@H](C)NC(=O)[C@H](CCC(N)=O)NC(=O)CNC(=O)[C@H](CCC(=O)O)NC(=O)[C@H](CC(C)C)NC(=O)[C@H](Cc1ccc(O)cc1)NC(=O)[C@H](CO)NC(=O)[C@H](CO)NC(=O)[C@@H](NC(=O)[C@H](CC(=O)O)NC(=O)[C@H](CO)NC(=O)[C@@H](NC(=O)[C@H](Cc1ccccc1)NC(=O)[C@@H](NC(=O)CNC(=O)[C@H](CCC(=O)O)NC(=O)[C@H](C)NC(=O)[C@@H](N)Cc1cnc[nH]1)[C@@H](C)O)[C@@H](C)O)C(C)C)C(=O)N[C@@H](CCC(=O)O)C(=O)N[C@@H](Cc1ccccc1)C(=O)N[C@H](C(=O)N[C@@H](C)C(=O)N[C@@H](Cc1c[nH]c2ccccc12)C(=O)N[C@@H](CC(C)C)C(=O)N[C@H](C(=O)N[C@@H](CCCNC(=N)N)C(=O)NCC(=O)N[C@@H](CCCNC(=N)N)C(=O)NCC(=O)O)C(C)C)[C@@H](C)CC)C(=O)O` [liraglutide], the “MSE curve of glucose, treatment vs pre-treatment period” value ([1]; animals 161286 and 161288) is reported as “higher”, the “complexity of glucose dynamics in diabetic animals” value ([1]; five diabetic rhesus, 2–4 weeks of treatment) is reported as “did not consistently change complexity” and the “MSE of glucose, treatment vs pre-treatment period” value ([1]; three of five treated diabetic animals, 16 to 28 days) is reported as “essentially no difference”. For the same compound, the “time of maximum concentrations post dosing” value ([2]; subcutaneous administration) was 8 to 12 h, the “mean peak (Cmax) exposure” value ([2]; subcutaneous single dose of 0.6 mg) was 35 ng/mL and the “afternoon peak in glucose” value ([3]; all five treated diabetic rhesus, mean glucose by time of day, before and during treatment) was “reduced”. The “Mean glucose, With liraglutide” value ([3]; diabetic rhesus animal 161282, 15 µg/kg sc daily) was 208.2 mg/dL, the “Mean glucose, With liraglutide” value ([3]; diabetic rhesus animal 161283, 15 µg/kg sc daily) was 109.6 mg/dL and the “Mean glucose, With liraglutide” value ([3]; diabetic rhesus animal 161284, 15 µg/kg sc daily) was 183.1 mg/dL. For the same compound, the “Mean glucose, With liraglutide” value ([3]; diabetic rhesus animal 161286, 15 µg/kg sc daily) was 236.6 mg/dL, the “Mean glucose, With liraglutide” value ([3]; diabetic rhesus animal 161288, 15 µg/kg sc daily) was 140.9 mg/dL and the “coefficient of variation of glucose (standard deviation as a proportion of the mean), treatment vs pre-treatment” value ([3]; five diabetic rhesus, 15 µg/kg sc daily) was “no consistent change”. For the same compound, the “decline of mean glucose” value ([3]; range over all five treated diabetic rhesus, 15 µg/kg sc daily, treatment vs pre-treatment period) was 5–42%.
